Counter-ions that a name gives are not always drawn. The source made the active and inactive calls. The calls are words filed in the database; no cut-off is given here.
Tests used:
[1] = tested on: HL-60; experiment: Cytotoxicity in human HL60 cells assessed as inhibition of cell viability incubated for 72 hrs by CCK-8 assay; type: functional, cell-based; details: for IC50: HL-60, 72 h
[2] = tested on: A549; experiment: Cytotoxicity in human A549 cells assessed as inhibition of cell viability incubated for 72 hrs by CCK-8 assay; type: functional, cell-based; details: for IC50: A549, 72 h
[3] = tested on: HL-60; experiment: Cytotoxicity in human HL60 cells assessed as inhibition of cell viability at 50 uM incubated for 72 hrs by CCK-8 assay; type: functional; details: HL-60, 72 h
[4] = tested on: A549; experiment: Cytotoxicity in human A549 cells assessed as inhibition of cell viability at 50 uM incubated for 72 hrs by CCK-8 assay; type: functional; details: A549, 72 h

Cc1cc(=O)cc2c3c1C[C@H]1[C@@H]3[C@]3(C[C@H]2O)C(=O)O[C@@H]1CC3C (stereo not given in full)
IC50 [1]: > 50 µM | IC50 [2]: 22 µM

Cc1cc(=O)cc2c3c1[C@H](O)[C@@H]1[C@@H]4OC(=O)[C@](CC2)(C(C)C4O)[C@H]31 (stereo not given in full)
IC50 [1]: 2.2 µM | IC50 [2]: 2.4 µM

CO[C@@]12c3c4cc(=O)cc(C)c3C[C@@H]1[C@H]1CC(C)[C@@]2(CC4)C(=O)O1 (stereo not given in full)
inhibition [1]: inactive | inhibition [2]: inactive

Cc1cc(=O)cc2c3c1C[C@@H]1[C@H]4CC(C)[C@@](CC2)(C(=O)O4)[C@]31O (stereo not given in full)
inhibition [1]: inactive | inhibition [2]: Active

CC1C[C@H]2OC(=O)[C@]13CC[C@@H]1C[C@H](O)C[C@H](C)C4=C1[C@@H]3[C@@H]2C4=O (stereo not given in full)
inhibition at 50 µM [3]: < 50% | inhibition at 50 µM [4]: < 50%

CC1C(O)[C@H]2OC(=O)[C@]13CC[C@@H]1C[C@@H](O)C[C@H](C)C4=C1[C@]3(O)[C@@H]2C4=O (stereo not given in full)
inhibition at 50 µM [3]: < 50% | inhibition at 50 µM [4]: < 50%

Cc1cc(=O)cc2c3c1[C@@H](O)[C@@H]1[C@H]4CC(C)[C@@](C=C2)(C(=O)O4)[C@]31O (stereo not given in full)
inhibition [1]: inactive | inhibition [2]: inactive

CC1C[C@H]2OC(=O)[C@]13CC[C@@H]1C[C@@H](O)C[C@H](C)C4=C1[C@@H]3[C@@H]2C4=O (stereo not given in full)
inhibition at 50 µM [3]: < 50% | inhibition at 50 µM [4]: < 50%

CC1C[C@H]2OC(=O)[C@]13CC[C@@H]1CC(=O)C[C@H](C)C4=C1[C@@H]3[C@@H]2C4=O (stereo not given in full)
inhibition at 50 µM [3]: < 50% | inhibition at 50 µM [4]: < 50%

Cc1cc(=O)cc2c3c1[C@@H]1OC4C(C)[C@@]5(C[C@H]2O)C(=O)O[C@H]4[C@]1(O)[C@@H]35 (stereo not given in full)
IC50 [1]: 17.2 µM | IC50 [2]: 11.5 µM

CC1C[C@H]2OC(=O)[C@]13CC[C@@H]1CC(=O)C[C@H](C)C4=C1[C@]3(O)[C@@H]2C4=O (stereo not given in full)
inhibition at 50 µM [3]: < 50% | inhibition at 50 µM [4]: < 50%

Cc1cc(=O)cc2c3c1C[C@@H]1[C@@H]4OC(=O)[C@](C[C@H]2O)(C(C)C4O)[C@H]31 (stereo not given in full)
IC50 [1]: 38.4 µM | IC50 [2]: 25.4 µM

Cc1cc(=O)cc2c3c1[C@@H](O)[C@H]1[C@@H]3[C@]3(CC2)C(=O)O[C@@H]1CC3C (stereo not given in full)
IC50 [1]: > 50 µM | IC50 [2]: 10.3 µM

CC1=C[C@@H](O)[C@H](O)[C@@]2(O)CC[C@]34C(=O)O[C@@H]5C(O[C@H]6C1=C2[C@@H]3[C@@H]56)C4C (stereo not given in full)
inhibition at 50 µM [3]: < 50% | inhibition at 50 µM [4]: < 50%

COc1cccc2c1C(=O)c1c(O)c3c(c(O)c1C2=O)C[C@@](O)(C(=O)CO)C[C@@H]3O[C@H]1C[C@H](N)[C@H](O)[C@H](C)O1 [DOXORUBICIN HYDROCHLORIDE]
IC50 [1]: 0.075 µM | IC50 [2]: 0.44 µM

Cc1cc(=O)cc2c3c1C[C@H]1[C@@H]3[C@]3(C=C2)C(=O)O[C@@H]1CC3C (stereo not given in full)
IC50 [1]: 9.8 µM | IC50 [2]: 1 µM

Cc1cc(=O)cc2c3c1C[C@@H]1[C@H]4CC(C)[C@@](C=C2)(C(=O)O4)[C@]31O (stereo not given in full)
IC50 [1]: 10 to 20 µM | IC50 [2]: 5.7 µM

Cc1cc(=O)cc2c3c1C[C@]1(O)[C@H]4CC(C)[C@@](CC2)(C(=O)O4)[C@]31O (stereo not given in full)
IC50 [1]: 6.8 µM | IC50 [2]: 4.5 µM

CC1C(O)[C@H]2OC(=O)[C@]13CC[C@]14C[C@@H](O)[C@H](O1)[C@@](C)(O)C1=C4[C@@H]3[C@@H]2C1 (stereo not given in full)
inhibition at 50 µM [3]: < 50% | inhibition at 50 µM [4]: < 50%

Cc1cc(=O)cc2c3c1[C@H](O)[C@H]1[C@@H]3[C@]3(CC2)C(=O)O[C@@H]1CC3C (stereo not given in full)
IC50 [1]: 3.5 µM | IC50 [2]: 2.4 µM
